Experimental data from patent publication US5672715A, “Herbicidal substituted 3-aryl-pyrazoles” (Monsanto Company, priority 1995, dated 1997).
Where two headings read alike, the source gives them in different places.

Key:
Format in all cases: in vivo
Rice = test: pre-emergence herbicide test; settings: Oryza sativa, read-out: % plant inhibition
Summary of the method: (§1)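 Herbicidal effect was assessed as percent inhibition about 14 days after sowing. A known amount of compound was added to the covering topsoil, and the pans were subirrigated in a greenhouse.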

Velvetleaf [1] = test: pre-emergence herbicide test
Summary of the method: as §1

Yellow Foxtail [2] = test: pre-emergence herbicide test; settings: Setaria, read-out: % plant inhibition
Summary of the method: as §1

Barnyardgrass = test: post-emergence herbicide test; settings: Echinochloa crus-galli, post-emergence, read-out: % plant inhibition
Summary of the method: (§2)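 Sown pans kept on a greenhouse bench with irrigation or subirrigation until plants reached two to three weeks, then sprayed at 170.3 kPa (10 psig). Spray mix held about 0.4% by volume emulsifier; total volume 1870 L/Ha. Result expressed as percent inhibition.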

Bedstraw Catchweed = test: post-emergence herbicide test
Summary of the method: as §2

Blackgrass = test: post-emergence herbicide test; settings: Alopecurus myosuroides, post-emergence, read-out: % plant inhibition; for inhibition at 7.95803 g/ha: 0.0071 lb/A; for inhibition at 40.0143 g/ha: 0.0357 lb/A; for inhibition at 1000.92 g/ha: 0.893 lb/A; for inhibition at 5043.82 g/ha: 4.5 lb/A
Summary of the method: as §2

Cocklebur = test: post-emergence herbicide test; settings: Xanthium strumarium, post-emergence, read-out: % plant inhibition
Summary of the method: as §2

Common Chickweed = test: post-emergence herbicide test
Summary of the method: as §2

Corn = test: post-emergence herbicide test; settings: Zea mays, post-emergence, read-out: % plant inhibition
Summary of the method: as §2

Morning Glory = test: post-emergence herbicide test
Summary of the method: as §2

Soybean = test: post-emergence herbicide test
Summary of the method: as §2

Velvetleaf [3] = test: post-emergence herbicide test
Summary of the method: as §2

Wheat = test: post-emergence herbicide test
Summary of the method: as §2

Yellow Foxtail [4] = test: post-emergence herbicide test; settings: Setaria, read-out: % plant inhibition
Summary of the method: as §2

Yellow Nutsedge = test: post-emergence herbicide test; settings: Cyperus, read-out: % plant inhibition
Summary of the method: as §2

Cc1c(-c2cc(F)c([N+](=O)[O-])cc2F)nn(C)c1C(F)(F)F [Compound 35]
inhibition at 40.0143 g/ha (Rice; 0.0357 lb/A): 0%
inhibition at 5043.82 g/ha (Rice; 4.5 lb/A): 0%
% plant inhibition (Velvetleaf [1]; 0.893 lb/A): 98%
inhibition at 40.0143 g/ha (Velvetleaf [1]; Abutilon theophrasti, pre-emergence, 0.0357 lb/A, read-out: % plant inhibition): 0%
inhibition at 1000.92 g/ha (Velvetleaf [1]; Abutilon theophrasti, pre-emergence, 0.893 lb/A, read-out: % plant inhibition): 100%
inhibition at 5043.82 g/ha (Velvetleaf [1]; Abutilon theophrasti, pre-emergence, 4.5 lb/A, read-out: % plant inhibition): 100%
inhibition at 40.0143 g/ha (Yellow Foxtail [2]; 0.0357 lb/A): 0%
inhibition at 200.072 g/ha (Yellow Foxtail [2]; 0.1785 lb/A): 0%
inhibition at 1000.92 g/ha (Yellow Foxtail [2]; 0.893 lb/A): 35%
inhibition at 5043.82 g/ha (Yellow Foxtail [2]; 4.5 lb/A): 80%
inhibition at 7.95803 g/ha (Barnyardgrass; 0.0071 lb/A): 0%
inhibition at 40.0143 g/ha (Barnyardgrass; 0.0357 lb/A): 0%
inhibition at 200.072 g/ha (Barnyardgrass; 0.1785 lb/A): 0%
inhibition at 5043.82 g/ha (Barnyardgrass; 4.5 lb/A): 65%
% plant inhibition (Bedstraw Catchweed; 0.893 lb/A): 95%
inhibition at 7.95803 g/ha (Bedstraw Catchweed; Galium aparine, post-emergence, 0.0071 lb/A, read-out: % plant inhibition): 0%
inhibition at 40.0143 g/ha (Bedstraw Catchweed; Galium aparine, post-emergence, 0.0357 lb/A, read-out: % plant inhibition): 25%
inhibition at 1000.92 g/ha (Bedstraw Catchweed; Galium aparine, post-emergence, 0.893 lb/A, read-out: % plant inhibition): 75%
inhibition at 5043.82 g/ha (Bedstraw Catchweed; Galium aparine, post-emergence, 4.5 lb/A, read-out: % plant inhibition): 85%
inhibition at 7.95803 g/ha (Blackgrass; Table 4a): 0%
inhibition at 7.95803 g/ha (Blackgrass; Table 5a): 0%
inhibition at 40.0143 g/ha (Blackgrass; Table 4a): 0%
inhibition at 40.0143 g/ha (Blackgrass; Table 5a): 0%
inhibition (Blackgrass; 0.1725 lb/A, Table 4a): 0%
inhibition at 200.072 g/ha (Blackgrass; 0.1785 lb/A, Table 4a): 0%
inhibition at 1000.92 g/ha (Blackgrass; Table 4a): 0%
inhibition at 1000.92 g/ha (Blackgrass; Table 5a): 35%
inhibition at 5043.82 g/ha (Blackgrass; Table 4a): 0%
inhibition at 5043.82 g/ha (Blackgrass; Table 5a): 45%
inhibition at 7.95803 g/ha (Cocklebur; 0.0071 lb/A): 0%
inhibition at 40.0143 g/ha (Cocklebur; 0.0357 lb/A): 0%
inhibition (Cocklebur; 0.1725 lb/A): 0%
inhibition at 200.072 g/ha (Cocklebur; 0.1785 lb/A): 0%
inhibition at 5043.82 g/ha (Cocklebur; 4.5 lb/A): 90%
% plant inhibition (Common Chickweed; 0.893 lb/A): 10%
inhibition at 7.95803 g/ha (Common Chickweed; post-emergence, 0.0071 lb/A, read-out: % plant inhibition): 0%
inhibition at 40.0143 g/ha (Common Chickweed; post-emergence, 0.0357 lb/A, read-out: % plant inhibition): 0%
inhibition at 200.072 g/ha (Common Chickweed; post-emergence, 0.1785 lb/A, read-out: % plant inhibition): 0%
inhibition at 5043.82 g/ha (Common Chickweed; post-emergence, 4.5 lb/A, read-out: % plant inhibition): 35%
inhibition at 7.95803 g/ha (Corn; 0.0071 lb/A): 0%
inhibition at 40.0143 g/ha (Corn; 0.0357 lb/A): 0%
inhibition (Corn; 0.1725 lb/A): 30%
inhibition at 200.072 g/ha (Corn; 0.1785 lb/A): 20%
inhibition at 5043.82 g/ha (Corn; 4.5 lb/A): 75%
% plant inhibition (Morning Glory; 0.893 lb/A): 100%
inhibition at 7.95803 g/ha (Morning Glory; Ipomoea, post-emergence, 0.0071 lb/A, read-out: % plant inhibition): 0%
inhibition at 40.0143 g/ha (Morning Glory; Ipomoea, post-emergence, 0.0357 lb/A, read-out: % plant inhibition): 0%
inhibition (Morning Glory; Ipomoea, post-emergence, 0.1725 lb/A, read-out: % plant inhibition): 65%
inhibition at 200.072 g/ha (Morning Glory; Ipomoea, post-emergence, 0.1785 lb/A, read-out: % plant inhibition): 75%
inhibition at 1000.92 g/ha (Morning Glory; Ipomoea, post-emergence, 0.893 lb/A, read-out: % plant inhibition): 85%
inhibition at 5043.82 g/ha (Morning Glory; Ipomoea, post-emergence, 4.5 lb/A, read-out: % plant inhibition): 95%
% plant inhibition (Soybean; 0.893 lb/A): 30%
inhibition at 7.95803 g/ha (Soybean; Glycine max, post-emergence, 0.0071 lb/A, read-out: % plant inhibition): 0%
inhibition at 40.0143 g/ha (Soybean; Glycine max, post-emergence, 0.0357 lb/A, read-out: % plant inhibition): 0%
inhibition (Soybean; Glycine max, post-emergence, 0.1725 lb/A, read-out: % plant inhibition): 20%
inhibition at 200.072 g/ha (Soybean; Glycine max, post-emergence, 0.1785 lb/A, read-out: % plant inhibition): 25%
inhibition at 5043.82 g/ha (Soybean; Glycine max, post-emergence, 4.5 lb/A, read-out: % plant inhibition): 55%
% plant inhibition (Velvetleaf [3]; 0.893 lb/A): 70%
inhibition at 7.95803 g/ha (Velvetleaf [3]; Abutilon theophrasti, post-emergence, 0.0071 lb/A, read-out: % plant inhibition): 0%
inhibition at 40.0143 g/ha (Velvetleaf [3]; Abutilon theophrasti, post-emergence, 0.0357 lb/A, read-out: % plant inhibition): 0%
inhibition at 200.072 g/ha (Velvetleaf [3]; Abutilon theophrasti, post-emergence, 0.1785 lb/A, read-out: % plant inhibition): 45%
inhibition at 1000.92 g/ha (Velvetleaf [3]; Abutilon theophrasti, post-emergence, 0.893 lb/A, read-out: % plant inhibition): 75%
inhibition at 5043.82 g/ha (Velvetleaf [3]; Abutilon theophrasti, post-emergence, 4.5 lb/A, read-out: % plant inhibition): 100%
% plant inhibition (Wheat; 0.1785 lb/A): 5%
% plant inhibition (Wheat; 0.893 lb/A): 15%
inhibition at 7.95803 g/ha (Wheat; Triticum aestivum, post-emergence, 0.0071 lb/A, read-out: % plant inhibition): 0%
inhibition at 40.0143 g/ha (Wheat; Triticum aestivum, post-emergence, 0.0357 lb/A, read-out: % plant inhibition): 0%
inhibition at 1000.92 g/ha (Wheat; Triticum aestivum, post-emergence, 0.893 lb/A, read-out: % plant inhibition): 20%
inhibition at 5043.82 g/ha (Wheat; Triticum aestivum, post-emergence, 4.5 lb/A, read-out: % plant inhibition): 25%
inhibition at 7.95803 g/ha (Yellow Foxtail [4]; 0.0071 lb/A): 0%
inhibition at 40.0143 g/ha (Yellow Foxtail [4]; 0.0357 lb/A): 0%
inhibition at 200.072 g/ha (Yellow Foxtail [4]; 0.1785 lb/A): 20%
inhibition at 5043.82 g/ha (Yellow Foxtail [4]; 4.5 lb/A): 65%
inhibition at 7.95803 g/ha (Yellow Nutsedge; 0.0071 lb/A): 0%
inhibition at 40.0143 g/ha (Yellow Nutsedge; 0.0357 lb/A): 0%
inhibition (Yellow Nutsedge; 0.1725 lb/A): 0%
inhibition at 200.072 g/ha (Yellow Nutsedge; 0.1785 lb/A): 0%
inhibition at 1000.92 g/ha (Yellow Nutsedge; 0.893 lb/A): 0%
inhibition at 5043.82 g/ha (Yellow Nutsedge; 4.5 lb/A): 0%
